Species on record: Rattus norvegicus
Test: Open TG-GATES - Regimen: Daily Repeat
Format: toxicity, organism-based, Sprague-Dawley
Parameters: regimen Daily Repeat, gender Male, age 6 weeks
Details: in vivo, po, route gavage; for Bas / Eos / Fbg / Hb / Ht / MCHC / MCV / Mono / Neu / Plat / RBC / Ret / WBC: tissue Blood; for KIDNEY_L / KIDNEY_R / KIDNEY_TOTAL: tissue Kidney; for LIVER: tissue Liver; for ALP / AST / BUN / CRE / DBIL / GLC / K / LDH / Na / PL / RALB / TBIL / TC / TG / TP / gamma-GTP / IP: tissue Plasma
[1] = 0 mg/kg, 72 h, dose level Control, time 3 day
[2] = 0 mg/kg, […], dose level Control, time 7 day
[3] = 0 mg/kg, […], dose level Control, time 14 day
[4] = 0 mg/kg, […], dose level Control, time 28 day
[5] = 20 mg/kg, 72 h, dose level Low, time 3 day
[6] = 20 mg/kg, […], dose level Low, time 7 day
[7] = 20 mg/kg, […], dose level Low, time 14 day
[8] = 20 mg/kg, […], dose level Low, time 28 day

CO[C@H]1/C=C/O[C@@]2(C)Oc3c(C)c(O)c4c(O)c(c(/C=N/N5CCN(C)CC5)c(O)c4c3C2=O)NC(=O)/C(C)=C\C=C\[C@H](C)[C@H](O)[C@@H](C)[C@@H](O)[C@@H](C)[C@H](OC(C)=O)[C@@H]1C [RIFAMPIN]
TERMINAL_BW [1]: 242.1 g | Bas [1]: 0% | Eos [1]: 1% | Fbg [1]: 239 mg/dL | Hb [1]: 13.9 g/dL | Ht [1]: 42% | MCHC [1]: 33.1% | MCV [1]: 63.9 fL | Mono [1]: 7.2% | Neu [1]: 13.8% | Plat [1]: 126 x10_4/uL | RBC [1]: 657.6 x10_4/ul | Ret [1]: 6.4% | WBC [1]: 129.1 x10_2/uL | KIDNEY_L [1]: 1 g | KIDNEY_R [1]: 1 g | KIDNEY_TOTAL [1]: 2 g | LIVER [1]: 12.4 g | ALP [1]: 966.4 IU/L | AST [1]: 62.4 IU/L | BUN [1]: 19 mg/dL | CRE [1]: 0.6 mg/dL | DBIL [1]: 0.004 mg/dL | GLC [1]: 199.2 mg/dL | K [1]: 5 meq/L | LDH [1]: 110.6 IU/L | Na [1]: 139.8 meq/L | PL [1]: 157 mg/dL | RALB [1]: 3.7 g/dL | TBIL [1]: 0.3 mg/dL | TC [1]: 83.8 mg/dL | TG [1]: 112.8 mg/dL | TP [1]: 6.1 g/dL | gamma-GTP [1]: 2 IU/L | TERMINAL_BW [2]: 275.2 g | TERMINAL_BW [3]: 316.4 g | TERMINAL_BW [4]: 390.1 g | Bas [2]: 0% | Eos [2]: 0% | Fbg [2]: 231.8 mg/dL | Hb [2]: 14.1 g/dL | Ht [2]: 42.8% | MCHC [2]: 33.1% | MCV [2]: 63.2 fL | Mono [2]: 6.2% | Neu [2]: 13.6% | Plat [2]: 107.2 x10_4/uL | RBC [2]: 677.2 x10_4/ul | Ret [2]: 5.8% | WBC [2]: 122.2 x10_2/uL | Bas [3]: 0% | Eos [3]: 0.8% | Fbg [3]: 235.6 mg/dL | Hb [3]: 15 g/dL | Ht [3]: 45% | MCV [3]: 59.6 fL | Mono [3]: 6% | Neu [3]: 11.8% | Plat [3]: 112.5 x10_4/uL | RBC [3]: 754.8 x10_4/ul | Ret [3]: 3.5% | WBC [3]: 153.6 x10_2/uL | Bas [4]: 0% | Eos [4]: 0.8% | Hb [4]: 15.7 g/dL | Ht [4]: 47% | MCHC [4]: 33.4% | MCV [4]: 58.9 fL | Mono [4]: 3% | Neu [4]: 12.4% | RBC [4]: 799.6 x10_4/ul | Ret [4]: 2.2% | KIDNEY_L [2]: 1.1 g | KIDNEY_R [2]: 1.1 g | KIDNEY_TOTAL [2]: 2.3 g | KIDNEY_L [3]: 1.2 g | KIDNEY_R [3]: 1.2 g | KIDNEY_TOTAL [3]: 2.4 g | KIDNEY_L [4]: 1.4 g | KIDNEY_R [4]: 1.4 g | KIDNEY_TOTAL [4]: 2.7 g | LIVER [2]: 13.1 g | LIVER [3]: 13.9 g | LIVER [4]: 16 g | ALP [2]: 827 IU/L | AST [2]: 68 IU/L | BUN [2]: 17.8 mg/dL | CRE [2]: 0.6 mg/dL | DBIL [2]: 0.004 mg/dL | GLC [2]: 198.6 mg/dL | IP [2]: 8.3 mg/dL | K [2]: 4.9 meq/L | LDH [2]: 108.4 IU/L | Na [2]: 140.6 meq/L | PL [2]: 150 mg/dL | RALB [2]: 3.9 g/dL | TBIL [2]: 0.3 mg/dL | TC [2]: 74.6 mg/dL | TG [2]: 132.6 mg/dL | TP [2]: 6.1 g/dL | gamma-GTP [2]: 1.8 IU/L | ALP [3]: 668.4 IU/L | AST [3]: 55.2 IU/L | BUN [3]: 18.2 mg/dL | CRE [3]: 0.6 mg/dL | DBIL [3]: 0.066 mg/dL | GLC [3]: 202.8 mg/dL | IP [3]: 7.9 mg/dL | K [3]: 5 meq/L | LDH [3]: 78.4 IU/L | Na [3]: 139.6 meq/L | PL [3]: 154.2 mg/dL | RALB [3]: 3.9 g/dL | TBIL [3]: 0.3 mg/dL | TC [3]: 68.6 mg/dL | TG [3]: 205.8 mg/dL | TP [3]: 6.3 g/dL | gamma-GTP [3]: 1.4 IU/L | ALP [4]: 557.2 IU/L | AST [4]: 56.4 IU/L | BUN [4]: 20.2 mg/dL | CRE [4]: 0.6 mg/dL | DBIL [4]: 0.014 mg/dL | GLC [4]: 179.8 mg/dL | IP [4]: 7.2 mg/dL | K [4]: 4.9 meq/L | LDH [4]: 77.2 IU/L | Na [4]: 140.6 meq/L | PL [4]: 157.4 mg/dL | RALB [4]: 4 g/dL | TBIL [4]: 0.3 mg/dL | TC [4]: 79.6 mg/dL | TG [4]: 165 mg/dL | TP [4]: 6.3 g/dL | gamma-GTP [4]: 0.8 IU/L | TERMINAL_BW [5]: 234.9 g | Bas [5]: 0% | Eos [5]: 0.8% | Fbg [5]: 239.4 mg/dL | Hb [5]: 14 g/dL | Ht [5]: 42.3% | MCHC [5]: 33% | MCV [5]: 62.8 fL | Mono [5]: 8% | Neu [5]: 7.2% | Plat [5]: 125.9 x10_4/uL | RBC [5]: 673.8 x10_4/ul | Ret [5]: 5.5% | WBC [5]: 119.2 x10_2/uL | KIDNEY_L [5]: 1 g | KIDNEY_R [5]: 1 g | KIDNEY_TOTAL [5]: 2 g | LIVER [5]: 10.7 g | ALP [5]: 787.6 IU/L | AST [5]: 66.8 IU/L | BUN [5]: 16 mg/dL | CRE [5]: 0.5 mg/dL | DBIL [5]: 0.002 mg/dL | GLC [5]: 194.8 mg/dL | IP [5]: 8.8 mg/dL | K [5]: 4.6 meq/L | LDH [5]: 113.2 IU/L | Na [5]: 139.4 meq/L | RALB [5]: 3.6 g/dL | TBIL [5]: 0.3 mg/dL | TC [5]: 73.4 mg/dL | TG [5]: 66 mg/dL | TP [5]: 5.8 g/dL | gamma-GTP [5]: 1.8 IU/L | TERMINAL_BW [6]: 264.5 g | TERMINAL_BW [7]: 308 g | TERMINAL_BW [8]: 375.5 g | Bas [6]: 0% | Eos [6]: 0.8% | Fbg [6]: 232.6 mg/dL | Hb [6]: 14 g/dL | Ht [6]: 41.7% | MCHC [6]: 33.4% | MCV [6]: 63.4 fL | Mono [6]: 4.8% | Neu [6]: 9% | Plat [6]: 115.2 x10_4/uL | RBC [6]: 658 x10_4/ul | Ret [6]: 5.9% | WBC [6]: 129.4 x10_2/uL | Bas [7]: 0% | Eos [7]: 0.8% | Fbg [7]: 227.2 mg/dL | Hb [7]: 14.7 g/dL | Ht [7]: 44% | MCHC [7]: 33.4% | MCV [7]: 60.7 fL | Mono [7]: 2.8% | Neu [7]: 6% | Plat [7]: 121.9 x10_4/uL | RBC [7]: 726.2 x10_4/ul | Ret [7]: 3.5% | WBC [7]: 131.2 x10_2/uL | Bas [8]: 0% | Eos [8]: 1% | Fbg [8]: 225 mg/dL | Hb [8]: 15.6 g/dL | Ht [8]: 46.4% | MCHC [8]: 33.5% | MCV [8]: 56.7 fL | Mono [8]: 4.4% | Neu [8]: 7.6% | Plat [8]: 107.2 x10_4/uL | RBC [8]: 819 x10_4/ul | Ret [8]: 2% | WBC [8]: 119 x10_2/uL | KIDNEY_L [6]: 1.1 g | KIDNEY_R [6]: 1.1 g | KIDNEY_TOTAL [6]: 2.2 g | KIDNEY_L [7]: 1.2 g | KIDNEY_R [7]: 1.3 g | KIDNEY_TOTAL [7]: 2.5 g | KIDNEY_L [8]: 1.3 g | KIDNEY_R [8]: 1.3 g | KIDNEY_TOTAL [8]: 2.6 g | LIVER [6]: 12.2 g | LIVER [7]: 13.1 g | LIVER [8]: 14.5 g | ALP [6]: 835.8 IU/L | AST [6]: 65.4 IU/L | BUN [6]: 16.8 mg/dL | CRE [6]: 0.5 mg/dL | DBIL [6]: 0.016 mg/dL | GLC [6]: 193.4 mg/dL | IP [6]: 7.7 mg/dL | K [6]: 5.1 meq/L | LDH [6]: 96.6 IU/L | Na [6]: 138.8 meq/L | PL [6]: 156.2 mg/dL | RALB [6]: 3.8 g/dL | TBIL [6]: 0.3 mg/dL | TC [6]: 80.6 mg/dL | TG [6]: 120.4 mg/dL | TP [6]: 5.8 g/dL | gamma-GTP [6]: 1.8 IU/L | ALP [7]: 712.2 IU/L | AST [7]: 56.6 IU/L | BUN [7]: 18.6 mg/dL | CRE [7]: 0.5 mg/dL | DBIL [7]: 0.04 mg/dL | GLC [7]: 190.2 mg/dL | IP [7]: 7.7 mg/dL | K [7]: 4.9 meq/L | LDH [7]: 75.8 IU/L | Na [7]: 140 meq/L | PL [7]: 159.8 mg/dL | RALB [7]: 3.9 g/dL | TBIL [7]: 0.3 mg/dL | TC [7]: 77.4 mg/dL | TG [7]: 168.2 mg/dL | TP [7]: 6.1 g/dL | gamma-GTP [7]: 0.8 IU/L | ALP [8]: 548.6 IU/L | AST [8]: 59.4 IU/L | BUN [8]: 18.6 mg/dL | CRE [8]: 0.6 mg/dL | DBIL [8]: 0.016 mg/dL | GLC [8]: 187.8 mg/dL | IP [8]: 7.1 mg/dL | K [8]: 4.3 meq/L | LDH [8]: 84.8 IU/L | Na [8]: 141.2 meq/L | PL [8]: 146.8 mg/dL | RALB [8]: 4.1 g/dL | TBIL [8]: 0.3 mg/dL | TC [8]: 76.8 mg/dL | TG [8]: 121.4 mg/dL | TP [8]: 6.3 g/dL | gamma-GTP [8]: 1.6 IU/L
